Results published in ChEMBL document CHEMBL4321836, “Discovery of BAY-298 and BAY-899: Tetrahydro-1,6-naphthyridine-Based, Potent, and Selective Antagonists of the Luteinizing Hormone Receptor Which Reduce Sex Hormone Levels in Vivo” (J Med Chem, 2019).

How the values were obtained:
[1] = tested on: Rattus norvegicus; assay: Downregulation of estradiol level in proestrus staged-female rat serum at 4.5 mg/kg, po administered once daily for 8 days and measured by radioimmunoassay method (reference value: 125 pmol/L); format: functional
[2] = target: T1, Lutropin-choriogonadotropic hormone receptor (Homo sapiens, UniProt P22888); assay: (§1) Negative allosteric modulation of human luteinizing hormone receptor assessed as reduction in glycoprotein human luteinizing hormone-induced agonist activity preincubated for 20 mins followed by 1 times EC80 of agonist addition and measured after 60 mins by cell based TR-FRET assay relative to control
[3] = target: T1, Lutropin-choriogonadotropic hormone receptor; assay: as §1, with “16” for “1”
[4] = Fraction unbound in female rat at 4.5 to 72 mg/kg, po administered once daily for 8 days; format: ADME, organism-based; conditions: in vivo
[5] = target: Luteinizing hormone/choriogondaotropin receptor (Macaca fascicularis, UniProt F5A8F7); assay: Antagonist activity at cynomolgus monkey luteinizing hormone receptor expressed in HEK293 cells assessed as reduction in agonist-induced cAMP production preincubated for 30 mins followed by agonist solution addition and measured after 30 mins by cell based TR-FRET assay
[6] = target: T1, Lutropin-choriogonadotropic hormone receptor; assay: Negative allosteric modulation of human luteinizing hormone receptor assessed as reduction in Org 43553-induced agonist activity preincubated for 20 mins followed by 100 times EC80 of agonist addition and measured after 60 mins by cell based TR-FRET assay relative to control
[7] = tested on: Rattus norvegicus; assay: Downregulation of estradiol level in proestrus staged-female rat serum at 9 mg/kg, po administered once daily for 8 days and measured by radioimmunoassay method (reference value: 125 pmol/L); format: functional
[8] = target: T1, Lutropin-choriogonadotropic hormone receptor; assay: Agonist activity at human luteinizing hormone receptor incubated for 60 mins by cell based TR-FRET assay
[9] = tested on: Rattus norvegicus; assay: Downregulation of human luteinizing hormone-induced progesterone expression in plasma of cetrorelix-treated iv dosed female rat after 2 hrs by radioimmunoassay method; format: functional, organism-based

T1 sequence (P22888 whole entry): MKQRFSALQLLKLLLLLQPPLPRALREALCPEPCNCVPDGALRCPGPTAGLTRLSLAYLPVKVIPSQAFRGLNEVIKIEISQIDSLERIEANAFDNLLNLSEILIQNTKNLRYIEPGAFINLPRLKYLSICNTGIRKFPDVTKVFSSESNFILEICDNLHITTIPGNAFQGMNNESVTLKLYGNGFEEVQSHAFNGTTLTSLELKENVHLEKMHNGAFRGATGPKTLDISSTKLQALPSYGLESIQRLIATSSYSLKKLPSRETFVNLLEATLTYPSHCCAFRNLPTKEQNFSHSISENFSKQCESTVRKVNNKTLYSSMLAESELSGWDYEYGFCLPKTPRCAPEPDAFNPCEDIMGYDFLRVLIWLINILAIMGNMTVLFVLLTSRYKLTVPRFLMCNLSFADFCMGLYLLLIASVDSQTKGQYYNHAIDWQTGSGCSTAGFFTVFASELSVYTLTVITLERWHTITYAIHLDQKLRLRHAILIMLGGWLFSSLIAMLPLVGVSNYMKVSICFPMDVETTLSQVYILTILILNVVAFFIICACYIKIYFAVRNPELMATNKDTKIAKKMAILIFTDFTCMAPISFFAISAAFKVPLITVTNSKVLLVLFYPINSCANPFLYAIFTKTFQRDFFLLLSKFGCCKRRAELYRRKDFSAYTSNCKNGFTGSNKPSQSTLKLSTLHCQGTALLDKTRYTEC
Sequence of Luteinizing hormone/choriogondaotropin receptor (F5A8F7 whole entry): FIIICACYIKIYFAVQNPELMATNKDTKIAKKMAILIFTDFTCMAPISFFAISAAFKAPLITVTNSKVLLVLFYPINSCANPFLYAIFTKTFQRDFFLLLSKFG

Q: For `O=C(Nc1ccc(Oc2ccc(F)cc2)cc1)N1CCc2ncccc2[C@@H]1c1ccc(Cl)cc1`, which Activity [1] is on record?
A: 118 pmol/L

Q: And the IC50 [2]?
A: 97 nM

Q: What about the IC50 [3] of the same compound?
A: 2200 nM

Q: What about the fraction unbound at 192 h [4] of the same compound?
A: 0.0024

Q: What about the IC50 [5] of the same compound?
A: 78 nM

Q: And the IC50 [6]?
A: 1500 nM

Q: And the Activity [7]?
A: 80 pmol/L

Q: What about the EC50 [8] of the same compound?
A: > 16000 nM

Q: What about the Activity [9] of the same compound?
A: Dose-dependent effect
